For seven compounds, IC50 results are on record in patent US5852016A, “Quinoxaline derivatives useful in therapy” (Pfizer Inc., priority 1994, dated 1998).

The target of the experiment is T1, glycine site of the NMDA receptor (Rattus norvegicus, UniProt P35439).
T1 construct: displace a selective glycine site radioligand from rat brain membranes; from tissue; host or cells: rat brain membranes
Briefly: Binding affinity for the glycine site of the NMDA receptor (test (a)). Particulars: displacement of selective glycine site radioligand ([3H]-L-689,560) from rat brain membranes. Here is the method: (a) Binding affinity for the glycine site of the NMDA receptor
This may be measured by testing a compound's ability to displace a selective glycine site radioligand from rat brain membranes as described in Brit J Pharm (1991), 104, 74. In a variation of this method, thoroughly washed membrane protein is incubated with [^3 H]-L-689,560 for 90 minutes using tris-acetate buffer (pH 7.4). Displacement of the radioligand, using a range of test compound concentrations, is used to derive IC50 (50% inhibitory concentration) values.

`CCc1c(Cl)cc2[nH]c(=O)c(=O)[nH]c2c1N(CCO)S(C)(=O)=O` [Example 40] returned an IC50 of less than 50 nM.
Next, `Cn1c(CN(c2c(Cl)c(Cl)cc3[nH]c(=O)c(=O)[nH]c23)S(C)(=O)=O)nc2ccccc21` [Example 56]: less than 50 nM; `CN(c1c(Cl)c(Cl)cc2[nH]c(=O)c(=O)[nH]c12)S(C)(=O)=O` [Example 8]: less than 50 nM.
Take `CS(=O)(=O)N(CC(=O)O)c1c(Cl)c(Cl)cc2[nH]c(=O)c(=O)[nH]c12` (racemic) [Example 70, (RS)-N-(Carboxymethyl)-N-(1,4-dihydro-6,7-dichloro-2,3-dioxoquinoxaline-5-yl)methanesulphonamide]: the half-inhibitory concentration (IC50) was less than 50 nM.
For `CS(=O)(=O)N(CCCO)c1c(Cl)c(Cl)cc2[nH]c(=O)c(=O)[nH]c12` [Example 29] the value was less than 50 nM; for `CCS(=O)(=O)Nc1c(Cl)c(Cl)cc2[nH]c(=O)c(=O)[nH]c12` [Example 1, N-(1,4-Dihydro-6,7-dichloro-2,3-dioxoguinoxalin-5-yl)ethanesulphonamide], less than 50 nM.
As for `CS(=O)(=O)N(CCO)c1c(Cl)c(Cl)cc2[nH]c(=O)c(=O)[nH]c12` (racemic) [Example 17, (RS)-N-(f1,4-Dihydro-6,7-dichloro-2,3-dioxoquinoxaline-5-yl)-N-(2-hydroxyethyl)methanesulphonamide], the IC50 was less than 50 nM.

By IC50 is commonly meant the concentration at which inhibition is half-maximal. Read a low IC50 as greater potency in that assay.
